# Patent US20060293307A1, “Oxazolidinone derivatives as antimicrobials” (priority 2002, published 2006)
# Read-outs that look alike come from different tables or passages of the source.
# Tests used:
# Experiment in all cases: MIC, agar incorporation method
# S. pneumoniae AB 10 = type: cell-based, Streptococcus pneumoniae
# E. faecalis 29212 = type: cell-based
# Moraxella M1 = type: cell-based
# S. aureus (MRSA) 15187 = type: cell-based, Staphylococcus aureus
# S. pneumoniae AB 21 = type: cell-based, Streptococcus pneumoniae
# S. pyogenes 20361 = type: cell-based, Streptococcus pyogenes
# S. pneumoniae 1251 = type: cell-based, Streptococcus pneumoniae
# S. pneumoniae AB 16 = type: cell-based, Streptococcus pneumoniae
# S. pneumoniae AB4 = type: cell-based, Streptococcus pneumoniae
# Salmonella 205 = type: cell-based; settings: S. No. 26, Salmonella 205
# Procedure: The compounds of the invention display antibacterial activity when tested by the agar incorporation method. The following minimum inhibitory concentrations (μg/ml) were obtained for representative compounds of the invention which are given below in the following tables.
# Briefly, the compounds were dissolved in DMSO and doubling dilution of the compounds were incorporated into Meer Hilton agar before solidification. Inoculum was prepared by suspending 4 to 5 colonies into 5 ml of normal saline solution and adjusting the turbidity to 0.5 Macfarland turbidity standard tables (1.5×10^8 CFU/ml), after appropriate dilutions, 10^4 CFU/spot was transfered into the surface of dried plate and incubated for 18 hours (24 hours for MRSN studies). The concentration showing no growth of the inoculated culture was recorded as the MIC. Appropriate ATCC standard strains were simultaneously tested and result recorded only when the MIC's against standard antibiotics were within the acceptable range.
# [1] = tested on: S. epidermidis ATCC 12228; type: cell-based, Staphylococcus epidermidis
# E. coli 25922 = type: cell-based
# S. pneumoniae AB-2 = type: cell-based, Streptococcus pneumoniae
# S. pneumoniae AB 29 = type: cell-based, Streptococcus pneumoniae
# S. pneumoniae 217 = type: cell-based, Streptococcus pneumoniae
# S. pneumoniae AB 30 = type: cell-based, Streptococcus pneumoniae
# (MRSA) 562 = type: cell-based, Staphylococcus aureus
# S. pneumoniae AB 25 = type: cell-based, Streptococcus pneumoniae
# S. pneumoniae 1275 = type: cell-based, Streptococcus pneumoniae
# E. faecium 6A (VRE) = type: cell-based, Enterococcus faecium
# S. aureus ATCC29213 = type: cell-based, Staphylococcus aureus
# P. aeruginosa ATCC 27853 = type: cell-based
# S. pneumoniae ATCC 6303 = type: cell-based, Streptococcus pneumoniae
# S pneumoniae 1294. = type: cell-based, Streptococcus pneumoniae
# [2] = tested on: S. epidermidis (MRSE) 23760; type: cell-based, Staphylococcus epidermidis
# S. pneumoniae AB 22 = type: cell-based, Streptococcus pneumoniae
# S. epidermidis 823 = type: cell-based, Staphylococcus epidermidis
# S. pneumoniae AB 34 = type: cell-based, Streptococcus pneumoniae
# [3] = tested on: Serratia marcescens 12999; type: cell-based
# [4] = tested on: S. epidermidis (MRSE)32965; type: cell-based, Staphylococcus epidermidis
# Moraxella cata. M2 = type: cell-based
# E. durans 581 = type: cell-based
# [5] = Staphylococcus epidermidis, ATCC12228
# [6] = Staphylococcus aureus, ATCC29213
# [7] = Pseudomonas aeruginosa, ATCC27853
# [8] = Streptococcus pneumoniae, ATCC6303
# [9] = Streptococcus pneumoniae, 1294.
# [10] = Staphylococcus epidermidis, MRSE
# [11] = Staphylococcus epidermidis, 823
structure (smiles),measurement,setting,value
"O=C(NC[C@H]1CN(c2ccc(N3CCN(c4ccc([N+](=O)[O-])s4)CC3)c(F)c2)C(=O)O1)C(F)F [Compound No. 8, (S)—N-[[3-[3-Fluoro-4-[4-(5-nitro-2-thienyl)-1-piperazinyl]phenyl]-2-oxo-5-oxazolidinyl]methyl]difluoroacetamide]",MIC,"S. pneumoniae AB 10; Streptococcus pneumoniae, AB10",0.125 µg/mL
same,MIC,"E. faecalis 29212; Enterococcus faecalis, 29212",0.25 µg/mL
same,MIC,"Moraxella M1; Moraxella, M1",1 µg/mL
same,MIC,"S. aureus (MRSA) 15187; Staphylococcus aureus, MRSA",2 µg/mL
same,MIC,"S. pneumoniae AB 21; Streptococcus pneumoniae, AB21",0.25 µg/mL
same,MIC,"S. pyogenes 20361; Streptococcus pyogenes, 20361",0.25 µg/mL
same,MIC,"S. pneumoniae 1251; Streptococcus pneumoniae, 1251",0.25 µg/mL
same,MIC,"S. pneumoniae AB 16; Streptococcus pneumoniae, AB16",0.25 µg/mL
same,MIC,"S. pneumoniae AB4; Streptococcus pneumoniae, AB4",0.125 µg/mL
same,MIC,Salmonella 205; read-out: MIC,> 8 µg/mL
same,MIC,[1]; [5],0.125 µg/mL
same,MIC,"E. coli 25922; Escherichia coli, 25922",> 8 µg/mL
same,MIC,"S. pneumoniae AB-2; Streptococcus pneumoniae, AB2",0.125 µg/mL
same,MIC,"S. pneumoniae AB 29; Streptococcus pneumoniae, AB29",0.25 µg/mL
same,MIC,"S. pneumoniae 217; Streptococcus pneumoniae, 217",0.25 µg/mL
same,MIC,"S. pneumoniae AB 30; Streptococcus pneumoniae, AB30",0.25 µg/mL
same,MIC,"(MRSA) 562; Staphylococcus aureus, MRSA",2 µg/mL
same,MIC,"S. pneumoniae AB 25; Streptococcus pneumoniae, AB25",0.25 µg/mL
same,MIC,"S. pneumoniae 1275; Streptococcus pneumoniae, 1275",0.06 µg/mL
same,MIC,"E. faecium 6A (VRE); Enterococcus faecium, VRE",1 µg/mL
same,MIC,S. aureus ATCC29213; [6],2 µg/mL
same,MIC,P. aeruginosa ATCC 27853; [7],> 8 µg/mL
same,MIC,S. pneumoniae ATCC 6303; [8],0.25 µg/mL
same,MIC,S pneumoniae 1294.; [9],0.25 µg/mL
same,MIC,[2]; [10],0.25 µg/mL
same,MIC,"S. pneumoniae AB 22; Streptococcus pneumoniae, AB22",0.25 µg/mL
same,MIC,S. epidermidis 823; [11],0.25 µg/mL
same,MIC,"S. pneumoniae AB 34; Streptococcus pneumoniae, AB34",0.5 µg/mL
same,MIC,"[3]; Serratia marcescens, 12999",> 8 µg/mL
same,MIC,[4]; [10],0.25 µg/mL
same,MIC,"Moraxella cata. M2; Moraxella, CATA.M2",1 µg/mL
same,MIC,"E. durans 581; Enterococcus durans, 581",0.25 µg/mL
"CC(=O)NC[C@H]1CN(c2ccc(N3CCN(c4cc(C(OC(C)=O)OC(C)=O)sc4[N+](=O)[O-])CC3)c(F)c2)C(=O)O1 [Compound No. 5, (S)—N-[[3-[3-Fluoro-4-[4-{3-thienyl(2-nitro)-5-acetyloxy}methylacetate]-1-piperazinyl]phenyl]-2-oxo-5-oxazolidinyl]acetamide]",MIC,"S. pneumoniae AB 10; S. No. 35, S. pneumoniae AB 10",0.25 µg/mL
same,MIC,"E. faecalis 29212; S. No. 17, E. faecalis 29212",2 µg/mL
same,MIC,"Moraxella M1; S. No. 58, Moraxella M1",4 µg/mL
same,MIC,"S. aureus (MRSA) 15187; S. No. 4, S. aureus (MRSA) 15187",0.25 µg/mL
same,MIC,"S. pneumoniae AB 21; S. No. 41, S. pneumoniae AB 21",0.5 µg/mL
same,MIC,"S. pyogenes 20361; S. No. 53, S. pyogenes 20361",0.5 µg/mL
same,MIC,"S. pneumoniae 1251; S. No. 54, S. pneumoniae 1251",0.5 µg/mL
same,MIC,"S. pneumoniae AB 16; S. No. 39, S. pneumoniae AB 16",0.5 µg/mL
same,MIC,"S. pneumoniae AB4; S. No. 33, S. pneumoniae AB4",0.5 µg/mL
same,MIC,Salmonella 205,>8 µg/mL
same,MIC,"[1]; S. No. 10, S. epidermidis ATCC 12228",<0.06 µg/mL
same,MIC,"E. coli 25922; S. No. 25, E. coli 25922",>8 µg/mL
same,MIC,"S. pneumoniae AB-2; S. No. 31, S. pneumoniae AB-2",0.25 µg/mL
same,MIC,"S. pneumoniae AB 29; S. No. 46, S. pneumoniae AB 29",0.5 µg/mL
same,MIC,"S. pneumoniae 217; S. No. 38, S. pneumoniae 217",0.5 µg/mL
same,MIC,"S. pneumoniae AB 30; S. No. 47, S. pneumoniae AB 30",0.5 µg/mL
same,MIC,"(MRSA) 562; S. No. 8, (MRSA) 562",0.25 µg/mL
same,MIC,"S. pneumoniae AB 25; S. No. 45, S. pneumoniae AB 25",0.5 µg/mL
same,MIC,"S. pneumoniae 1275; S. No. 57, S. pneumoniae 1275",0.25 µg/mL
same,MIC,"E. faecium 6A (VRE); S. No. 21, E. faecium 6A (VRE)",2 µg/mL
same,MIC,"S. aureus ATCC29213; S. No. 2, S. aureus ATCC29213",0.25 µg/mL
same,MIC,"P. aeruginosa ATCC 27853; S. No. 28, P. aeruginosa ATCC 27853",>8 µg/mL
same,MIC,"S. pneumoniae ATCC 6303; S. No. 50, S. pneumoniae ATCC 6303",0.5 µg/mL
same,MIC,"S pneumoniae 1294.; S. No. 55, S pneumoniae 1294.",0.5 µg/mL
same,MIC,"[2]; S. No. 11, S. epidermidis (MRSE) 23760",<0.06 µg/mL
same,MIC,"S. pneumoniae AB 22; S. No. 42, S. pneumoniae AB 22",0.5 µg/mL
same,MIC,"S. epidermidis 823; S. No. 12, S. epidermidis 823",<0.06 µg/mL
same,MIC,"S. pneumoniae AB 34; S. No. 49, S. pneumoniae AB 34",0.5 µg/mL
same,MIC,"[3]; S. No. 29, Serratia marcescens 12999",>8 µg/mL
same,MIC,"[4]; S. No. 13, S. epidermidis (MRSE)32965",<0.06 µg/mL
same,MIC,"Moraxella cata. M2; S. No. 59, Moraxella cata. M2",2 µg/mL
same,MIC,"E. durans 581; S. No. 24, E. durans 581",2 µg/mL
"CN[C@H](CC(C)C)C(=O)N[C@H]1C(=O)N[C@@H](CC(N)=O)C(=O)N[C@H]2C(=O)N[C@H]3C(=O)N[C@H](C(=O)N[C@H](C(=O)O)c4cc(O)cc(O)c4-c4cc3ccc4O)[C@H](O)c3ccc(c(Cl)c3)Oc3cc2cc(c3O[C@@H]2O[C@H](CO)[C@@H](O)[C@H](O)[C@H]2O[C@H]2C[C@](C)(N)[C@H](O)[C@H](C)O2)Oc2ccc(cc2Cl)[C@H]1O [Vancomycin, reference compound]",MIC,"S. pneumoniae AB 10; Streptococcus pneumoniae, AB10",0.25 µg/mL
same,MIC,"E. faecalis 29212; Enterococcus faecalis, 29212",4 µg/mL
same,MIC,"Moraxella M1; Moraxella, M1",> 8 µg/mL
same,MIC,"S. aureus (MRSA) 15187; Staphylococcus aureus, MRSA",0.5 µg/mL
same,MIC,"S. pneumoniae AB 21; Streptococcus pneumoniae, AB21",0.25 µg/mL
same,MIC,"S. pyogenes 20361; Streptococcus pyogenes, 20361",0.5 µg/mL
same,MIC,"S. pneumoniae 1251; Streptococcus pneumoniae, 1251",0.25 µg/mL
same,MIC,"S. pneumoniae AB 16; Streptococcus pneumoniae, AB16",0.25 µg/mL
same,MIC,"S. pneumoniae AB4; Streptococcus pneumoniae, AB4",0.25 µg/mL
same,MIC,Salmonella 205; read-out: MIC,> 16 µg/mL
same,MIC,[1]; [5],1 µg/mL
same,MIC,"E. coli 25922; Escherichia coli, 25922",> 16 µg/mL
same,MIC,"S. pneumoniae AB-2; Streptococcus pneumoniae, AB2",0.5 µg/mL
same,MIC,"S. pneumoniae AB 29; Streptococcus pneumoniae, AB29",0.25 µg/mL
same,MIC,"S. pneumoniae 217; Streptococcus pneumoniae, 217",0.5 µg/mL
same,MIC,"S. pneumoniae AB 30; Streptococcus pneumoniae, AB30",0.25 µg/mL
same,MIC,"(MRSA) 562; Staphylococcus aureus, MRSA",1 µg/mL
same,MIC,"S. pneumoniae AB 25; Streptococcus pneumoniae, AB25",0.25 µg/mL
same,MIC,"S. pneumoniae 1275; Streptococcus pneumoniae, 1275",0.5 µg/mL
same,MIC,"E. faecium 6A (VRE); Enterococcus faecium, VRE",> 16 µg/mL
same,MIC,S. aureus ATCC29213; [6],0.5 µg/mL
same,MIC,P. aeruginosa ATCC 27853; [7],> 16 µg/mL
same,MIC,S. pneumoniae ATCC 6303; [8],0.25 µg/mL
same,MIC,S pneumoniae 1294.; [9],0.5 µg/mL
same,MIC,[2]; [10],2 µg/mL
same,MIC,"S. pneumoniae AB 22; Streptococcus pneumoniae, AB22",0.25 µg/mL
same,MIC,S. epidermidis 823; [11],2 µg/mL
same,MIC,"S. pneumoniae AB 34; Streptococcus pneumoniae, AB34",0.25 µg/mL
same,MIC,"[3]; Serratia marcescens, 12999",> 16 µg/mL
same,MIC,[4]; [10],2 µg/mL
same,MIC,"Moraxella cata. M2; Moraxella, CATA.M2",> 8 µg/mL
same,MIC,"E. durans 581; Enterococcus durans, 581",> 16 µg/mL
